Reference: patent US20090234018A1, “Non-Standard Amino Acid Conjugates of Amphetamine and Processes for Making and Using the Same” (priority 2006, published 2009)
Read-outs that look alike come from different tables or passages of the source.

What was measured:
[1] = Oral PK study of Lys-Amp, hArg-Amp, Orn-Amp and Cit-Amp (Example 9); settings: rat; for % Tmax: relative to Lys-Amp
[2] = Intranasal PK study of d-amphetamine, hArg-Amp, Orn-Amp (Example 10); settings: rat; for % Tmax: relative to d-amp
[3] = PK of d-amphetamine after parenteral (intranasal, intravenous) administration of hArg-Amp (Example 1)
[4] = Intravenous PK study of d-amphetamine, hArg-Amp, Orn-Amp (Example 11); settings: rat, relative to d-amp
[5] = Average of 4 oral PK studies of Lys-Amp and hArg-Amp (Example 7, Table 3); settings: average of 4 oral studies, n=20; relative to Lys-Amp
[6] = rat, oral; relative to hArg-Amp
[7] = Oral gavage PK study of Lys-Amp and hArg-Amp, plasma d-amphetamine by ELISA (Example 7); settings: rat, relative to Lys-Amp
[8] = plasma d-amphetamine, given in minutes

With “1-citrulline-d-amphetamine hydrochloride [Cit-Amp]” the “Tmax compared to Lys-Amp” value [1] was “significantly shifted the Tmax”, the Tmax [1, 8] was 15 m and the “% Tmax” value [1] was 25%.

With C[C@H](N)Cc1ccccc1 [d-amp, d-amphetamine] the Tmax [2, 8] was 15 m and the “% Tmax” value [2] was 100%.

For C[C@@H](Cc1ccccc1)NC(=O)[C@@H](N)CCCCN=C(N)N.Cl.Cl [hArg-Amp, l-homoarginine-d-amphetamine dihydrochloride], the release of amphetamine [3] was < 50%, the “% Tmax” value [4] was 100% and the “% Tmax” value [2] was 1600%. The “% Tmax” value [1] was 200%, the “% Tmax” value [5] was 400% and the “% Tmax” value [6] was 100%. For the same molecule, the “% Tmax” value [7] was 133%.

With “l-lysine-d-amphetamine [Lys-Amp, reference compound]” the Cmax ([1]; plasma d-amphetamine) was 59 ng/mL, the “% Tmax” value [1] was 100% and the “% Tmax” value [5] was 100%. For the same molecule, the “% Tmax” value [7] was 100%.
